Test results: patent US10059676B2, “Process for preparing a novel crystalline form of iodosulfuron-methyl-sodium and use of the same” (ROTAM AGROCHEM INTERNATIONAL COMPANY LIMITED, priority 2015, dated 2018)

Experiment: Stability test: accelerated storage of formulations, relative percentage of hydrolysis (RPH) by HPLC (CIPAC MT 46.3)
Format: physicochemical
Conditions: for stability (hydrolysis), in words: general statement, in water, on storage, in formulations; for RPH % (relative percentage of hydrolysis): stored at 54° C. for 1 week
Description: The stability of the iodosulfuron-methyl-sodium in these compositions was determined by aging samples in heated ovens having the same atmosphere therein, and then comparing the iodosulfuron-methyl-sodium content before and after the aging to determine relative percentage of hydrolysis (RPH). RPH was calculated by the following equation: […]
Iodosulfuron-methyl-sodium content was determined by assaying the compositions with high-pressure liquid chromatography (HPLC) using reverse phase columns and eluants.
Samples prepared in Examples 4, 5 and 6 were stored at 54° C. for 1 week. The procedures are followed according to CIPAC MT 46.3. The concentration of iodosulfuron-methyl-sodium was measured at the end of each storage time by HPLC.

[1] = oil based suspension concentrate (OD) of Example 4, 40 wt% iodosulfuron-methyl-sodium
[2] = soluble granules (SG) of Example 5, 25 wt% iodosulfuron-methyl-sodium
[3] = water dispersible granules (WG) of Example 6, 25 wt% iodosulfuron-methyl-sodium

Row | SMILES | stability (hydrolysis), in words (listed as iodosulfuron-methyl-sodium in the amorphous state) | RPH % (relative percentage of hydrolysis) [1] [%] | RPH % (relative percentage of hydrolysis) [2] [%] | RPH % (relative percentage of hydrolysis) [3] [%] | stability (hydrolysis), in words (listed as crystalline modification I of iodosulfuron-methyl-sodium)
1 | COC(=O)c1ccc(I)cc1S(=O)(=O)NC(=O)[N-]c1nc(C)nc(OC)n1.[Na+] [Amorphous iodosulfuron-methyl-sodium, sodium salt of methyl 4-iodo-2-[[[[(4-methoxy-6-methyl-1,3,5-triazin-2-yl)amino]carbonyl]amino]sulfonyl]benzoate] | highly unstable | 49 | 42 | 40 | –
2 | COC(=O)c1ccc(I)cc1S(=O)(=O)NC(=O)[N-]c1nc(C)nc(OC)n1.[Na+] [Iodosulfuron-methyl-sodium, crystalline modification I] [sodium salt of methyl 4-iodo-2-[[[[(4-methoxy-6-methyl-1,3,5-triazin-2-yl)amino]carbonyl]amino]sulfonyl]benzoate] | – | 0 | 0 | 0 | significant increase in its stability
